Publication PMC7146381, “Modulation of Adhesion Process, E-Selectin and VEGF Production by Anthocyanins and Their Metabolites in an In Vitro Model of Atherosclerosis” (Nutrients, 2020)

Tested on: HUVECs
Experiment: Cytotoxicity, Trypan blue assay on HUVECs
Format: cell-based, Human
Settings: positive control, HUVEC cells, data not shown; p < 0.0001 vs cells with and without TNF-α (99%)
Method: The cytotoxicity of the compounds was tested by Trypan blue and (3-(4,5-dimethylthiazol-2-yl)-2, 5-diphenyltetrazolium bromide (MTT) assay on HUVECs, according to the manufacturer’s instructions. Triton X-100 was used as positive control. Two independent experiments were performed in which each compound and concentration was tested in quadruplicate.

With Triton X-100 [reference compound] the “cell viability reduced up to” value was 20%.
